Reference: publication PMC9501633, “Synthesis, Characterisation and Mechanism of Action of Anticancer 3-Fluoroazetidin-2-ones” (Pharmaceuticals, 2022)

What was measured:
NCI-H460 = test: NCI 60 cell line screen, NSCLung; assay type: cell-based, human; conditions: for inhibition at 10 µM / Growth %: one dose 10 µM
SF-539 = test: NCI 60 cell line screen, CNS; assay type: cell-based, human; conditions: for inhibition at 10 µM / Growth %: one dose 10 µM
A498 = test: NCI 60 cell line screen, Renal; assay type: cell-based, human; conditions: for inhibition at 10 µM / Growth %: one dose 10 µM
RPMI-8226 = test: NCI 60 cell line screen, Leukaemia; assay type: cell-based, human; conditions: for inhibition at 10 µM / Growth %: one dose 10 µM
NCI-H226 = test: NCI 60 cell line screen, NSCLung; assay type: cell-based, human; conditions: for inhibition at 10 µM / Growth %: one dose 10 µM
EKVX = test: NCI 60 cell line screen, NSCLung; assay type: cell-based, human; conditions: for inhibition at 10 µM / Growth %: one dose 10 µM
OVCAR-8 = test: NCI 60 cell line screen, Ovarian; assay type: cell-based, human; conditions: for inhibition at 10 µM / Growth %: one dose 10 µM
MCF7 = test: NCI 60 cell line screen, Breast; assay type: cell-based, human; conditions: for inhibition at 10 µM: MCF7, MCF7; for inhibition at 10 µM / Growth % / Inhibition %: one dose 10 µM
SK-OV-3 = test: NCI 60 cell line screen, Ovarian; assay type: cell-based, human; conditions: for inhibition at 10 µM / Growth %: one dose 10 µM
SK-MEL-5 = test: NCI 60 cell line screen, Melanoma; assay type: cell-based, human; conditions: for inhibition at 10 µM / Growth %: one dose 10 µM
BT-549 = test: NCI 60 cell line screen, Breast; assay type: cell-based, human; conditions: for inhibition at 10 µM / Growth %: one dose 10 µM
HOP-92 = test: NCI 60 cell line screen, NSCLung; assay type: cell-based, human; conditions: for inhibition at 10 µM / Growth %: one dose 10 µM
M14 = test: NCI 60 cell line screen, Melanoma; assay type: cell-based, human; conditions: for GI50: 5-dose, 48 h; for inhibition at 10 µM / Growth %: one dose 10 µM
UO-31 = test: NCI 60 cell line screen, Renal; assay type: cell-based, human; conditions: for inhibition at 10 µM / Growth %: one dose 10 µM
NCI-H23 = test: NCI 60 cell line screen, NSCLung; assay type: cell-based, human; conditions: for inhibition at 10 µM / Growth %: one dose 10 µM
ACHN = test: NCI 60 cell line screen, Renal; assay type: cell-based, human; conditions: one dose 10 µM; for inhibition at 10 µM: Homo sapiens
HS 578T = test: NCI 60 cell line screen, Breast; assay type: cell-based, human; conditions: for inhibition at 10 µM / Growth %: one dose 10 µM
HCT-116 = test: NCI 60 cell line screen, Colon; assay type: cell-based, human; conditions: for inhibition at 10 µM / Growth %: one dose 10 µM
SNB-75 = test: NCI 60 cell line screen, CNS; assay type: cell-based, human; conditions: for inhibition at 10 µM / Growth %: one dose 10 µM
MDA-MB-435 = test: NCI 60 cell line screen, Melanoma; assay type: cell-based, human; conditions: for inhibition at 10 µM / Growth %: one dose 10 µM
LOX IMVI = test: NCI 60 cell line screen, Melanoma; assay type: cell-based, human; conditions: for inhibition at 10 µM / Growth %: one dose 10 µM
RXF 393 = test: NCI 60 cell line screen, Renal; assay type: cell-based, human; conditions: for inhibition at 10 µM / Growth %: one dose 10 µM
HCC-2998 = test: NCI 60 cell line screen, Colon; assay type: cell-based, human; conditions: for inhibition at 10 µM / Growth %: one dose 10 µM
OVCAR-5 = test: NCI 60 cell line screen, Ovarian; assay type: cell-based, human; conditions: for inhibition at 10 µM / Growth %: one dose 10 µM
[1] = test system: MCF-7 human breast cancer cells; test: AlamarBlue cell viability assay; assay type: cell-based; conditions: Homo sapiens, MCF7, 72 h; for IC50: MCF-7, 72 h
How it was run: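 Cytotoxicity in MCF-7 cells seeded at 5 × 10^3 per well, treated after 24 h with compounds at 1 μM and 10 μM for 72 h, vehicle 1% ethanol. AlamarBlue (10% v/v) added for 3–5 h at 37 °C; fluorescence ex 530/em 590 nm, expressed as percent viability of vehicle control; IC50 from dose–response curves.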

DU-145 = test: NCI 60 cell line screen, Prostate; assay type: cell-based, human; conditions: for inhibition at 10 µM / Growth %: one dose 10 µM

## COc1ccc(C2C(F)C(=O)N2c2cc(OC)c(OC)c(OC)c2)cc1F (stereo not shown) [Compound 33, 3-Fluoro-4-(3-fluoro-4-methoxyphenyl)-1-(3,4,5-trimethoxyphenyl)azetidin-2-one]
NCI-H460; 5-dose, 48 h
  TGI: 91.1 µM
NCI-H460; Homo sapiens, 5-dose, 48 h
  GI50: 0.356 µM
NCI-H460; Homo sapiens
  inhibition at 10 µM: 92.9%
NCI-H460
  Growth %: 7.06%
SF-539; 5-dose, 48 h
  TGI: 0.217 µM
SF-539; Homo sapiens, 5-dose, 48 h
  GI50: 0.028 µM
SF-539; Homo sapiens
  inhibition at 10 µM: 95.8%
SF-539
  Growth %: 4.17%
A498; 5-dose, 48 h
  TGI: 8.08 µM
A498; Homo sapiens, 5-dose, 48 h
  GI50: 0.847 µM
A498; Homo sapiens
  inhibition at 10 µM: 106%
A498
  Growth %: -5.5%
RPMI-8226; 5-dose, 48 h
  TGI: 37.3 µM
RPMI-8226; Homo sapiens, 5-dose, 48 h
  GI50: 0.055 µM
RPMI-8226; Homo sapiens
  inhibition at 10 µM: 84.7%
RPMI-8226
  Growth %: 15.32%
NCI-H226; 5-dose, 48 h
  TGI: >100 µM
NCI-H226; Homo sapiens, 5-dose, 48 h
  GI50: 22.2 µM
NCI-H226; Homo sapiens
  inhibition at 10 µM: 41%
NCI-H226
  Growth %: 58.99%
EKVX; 5-dose, 48 h
  TGI: >100 µM
EKVX; Homo sapiens, 5-dose, 48 h
  GI50: 0.203 µM
EKVX; Homo sapiens
  inhibition at 10 µM: 27.8%
EKVX
  Growth %: 72.16%
OVCAR-8; 5-dose, 48 h
  TGI: >100 µM
OVCAR-8; Homo sapiens, 5-dose, 48 h
  GI50: 0.368 µM
OVCAR-8; Homo sapiens
  inhibition at 10 µM: 86.3%
OVCAR-8
  Growth %: 13.71%
MCF7; Homo sapiens
  inhibition at 10 µM: 87.2%
MCF7; Homo sapiens, MCF7, 5-dose, 48 h
  GI50: 0.0364 µM
MCF7; MCF7, 5-dose, 48 h
  TGI: >100 µM
MCF7; MCF7
  Growth %: 12.83%
  Inhibition %: 87.2%
SK-OV-3; 5-dose, 48 h
  TGI: >100 µM
SK-OV-3; Homo sapiens, 5-dose, 48 h
  GI50: 3.45 µM
SK-OV-3; Homo sapiens
  inhibition at 10 µM: 66.6%
SK-OV-3
  Growth %: 33.36%
SK-MEL-5; 5-dose, 48 h
  TGI: 0.35 µM
SK-MEL-5; Homo sapiens, 5-dose, 48 h
  GI50: 0.0456 µM
SK-MEL-5; Homo sapiens, 5-dose, 48 h, read-out: LC50 (the source's name)
  CC50: 91.3 µM
SK-MEL-5; Homo sapiens
  inhibition at 10 µM: 131%
SK-MEL-5
  Growth %: -31.46%
BT-549; 5-dose, 48 h
  TGI: 33.8 µM
BT-549; Homo sapiens, 5-dose, 48 h
  GI50: 0.0498 µM
BT-549; Homo sapiens
  inhibition at 10 µM: 84.7%
BT-549
  Growth %: 15.26%
HOP-92; 5-dose, 48 h
  TGI: 63.9 µM
HOP-92; Homo sapiens, 5-dose, 48 h
  GI50: 0.266 µM
HOP-92; Homo sapiens
  inhibition at 10 µM: 67.7%
HOP-92
  Growth %: 32.28%
M14
  GI50: 0.0254 µM
  Growth %: 1.91%
M14; Homo sapiens, M14, 48 h
  GI50: 0.025 µM
M14; Homo sapiens
  inhibition at 10 µM: 98.1%
UO-31; 5-dose, 48 h
  TGI: >100 µM
UO-31; Homo sapiens, 5-dose, 48 h
  GI50: 0.171 µM
UO-31; Homo sapiens
  inhibition at 10 µM: 56.8%
UO-31
  Growth %: 43.2%
NCI-H23; 5-dose, 48 h
  TGI: >100 µM
NCI-H23; Homo sapiens, 5-dose, 48 h
  GI50: 0.273 µM
NCI-H23; Homo sapiens
  inhibition at 10 µM: 78.7%
NCI-H23
  Growth %: 21.3%
ACHN
  inhibition at 10 µM: 67.3%
  Growth %: 32.67%
HS 578T; 5-dose, 48 h
  TGI: >100 µM
HS 578T; Homo sapiens, 5-dose, 48 h
  GI50: 0.295 µM
HS 578T; Homo sapiens
  inhibition at 10 µM: 74.5%
HS 578T
  Growth %: 25.54%
HCT-116; 5-dose, 48 h
  TGI: >100 µM
HCT-116; Homo sapiens, 5-dose, 48 h
  GI50: 0.0325 µM
HCT-116; Homo sapiens
  inhibition at 10 µM: 94.4%
HCT-116
  Growth %: 5.59%
SNB-75; 5-dose, 48 h
  TGI: >100 µM
SNB-75; Homo sapiens, 5-dose, 48 h
  GI50: > 100 µM
SNB-75; Homo sapiens
  inhibition at 10 µM: 49.1%
SNB-75
  Growth %: 50.89%
MDA-MB-435; Homo sapiens, 5-dose, 48 h
  GI50: 0.0291 µM
MDA-MB-435; Homo sapiens
  inhibition at 10 µM: 99.7%
MDA-MB-435
  Growth %: 0.35%
LOX IMVI; 5-dose, 48 h
  TGI: >100 µM
LOX IMVI; Homo sapiens, 5-dose, 48 h
  GI50: 0.0904 µM
LOX IMVI; Homo sapiens
  inhibition at 10 µM: 76%
LOX IMVI
  Growth %: 23.98%
RXF 393; 5-dose, 48 h
  GI50: 0.0398 µM
  TGI: 60 µM
RXF 393; Homo sapiens, RXF 393, 48 h, 5-dose, 48 h
  GI50: 0.039 µM
RXF 393; Homo sapiens
  inhibition at 10 µM: 71.2%
RXF 393
  Growth %: 28.8%
HCC-2998; 5-dose, 48 h
  TGI: >100 µM
HCC-2998; Homo sapiens, 5-dose, 48 h
  GI50: 0.406 µM
HCC-2998; Homo sapiens
  inhibition at 10 µM: 67.1%
HCC-2998
  Growth %: 32.93%
OVCAR-5; 5-dose, 48 h
  TGI: >100 µM
OVCAR-5; Homo sapiens, 5-dose, 48 h
  GI50: 0.423 µM
OVCAR-5; Homo sapiens
  inhibition at 10 µM: 56.4%
OVCAR-5
  Growth %: 43.57%
[1]; MCF-7, 1 μM, 72 h, read-out: viable cells remaining
  viability at 1 µM: 37%
[1]
  IC50: 0.095 µM
DU-145; 5-dose, 48 h
  TGI: >100 µM
DU-145; Homo sapiens, 5-dose, 48 h
  GI50: 0.269 µM
DU-145; Homo sapiens
  inhibition at 10 µM: 90.5%
DU-145
  Growth %: 9.46%

## COc1ccc(C2N(c3cc(OC)c(OC)c(OC)c3)C(=O)C2(F)F)cc1F (stereo not shown) [Compound 43, 3,3-Difluoro-4-(3-fluoro-4-methoxyphenyl)-1-(3,4,5-trimethoxyphenyl)azetidin-2-one]
NCI-H460; Homo sapiens
  inhibition at 10 µM: 72.8%
NCI-H460
  Growth %: 27.15%
SF-539; Homo sapiens
  inhibition at 10 µM: 78.3%
SF-539
  Growth %: 21.65%
A498; Homo sapiens
  inhibition at 10 µM: 2.19%
A498
  Growth %: 97.81%
RPMI-8226; Homo sapiens
  inhibition at 10 µM: 79.2%
RPMI-8226
  Growth %: 20.78%
NCI-H226; Homo sapiens
  inhibition at 10 µM: 24.5%
NCI-H226
  Growth %: 75.53%
EKVX; Homo sapiens
  inhibition at 10 µM: 22.3%
EKVX
  Growth %: 77.7%
OVCAR-8; Homo sapiens
  inhibition at 10 µM: 55.9%
OVCAR-8
  Growth %: 44.07%
MCF7; Homo sapiens
  inhibition at 10 µM: 84.9%
MCF7; MCF7
  Growth %: 15.06%
  Inhibition %: 84.9%
SK-OV-3; Homo sapiens
  inhibition at 10 µM: 24.5%
SK-OV-3
  Growth %: 75.49%
SK-MEL-5; Homo sapiens
  inhibition at 10 µM: 91.9%
SK-MEL-5
  Growth %: 8.08%
BT-549; Homo sapiens
  inhibition at 10 µM: 65%
BT-549
  Growth %: 34.99%
HOP-92; Homo sapiens
  inhibition at 10 µM: 39.2%
HOP-92
  Growth %: 60.84%
M14; Homo sapiens
  inhibition at 10 µM: 75.8%
M14
  Growth %: 24.24%
UO-31; Homo sapiens
  inhibition at 10 µM: 46.5%
UO-31
  Growth %: 53.48%
NCI-H23; Homo sapiens
  inhibition at 10 µM: 62.1%
NCI-H23
  Growth %: 37.86%
ACHN
  inhibition at 10 µM: 39.2%
  Growth %: 60.82%
HS 578T; Homo sapiens
  inhibition at 10 µM: 78.1%
HS 578T
  Growth %: 21.93%
HCT-116; Homo sapiens
  inhibition at 10 µM: 94.2%
HCT-116
  Growth %: 5.76%
SNB-75; Homo sapiens
  inhibition at 10 µM: 35.3%
SNB-75
  Growth %: 64.74%
MDA-MB-435; Homo sapiens
  inhibition at 10 µM: 87.1%
MDA-MB-435
  Growth %: 12.92%
LOX IMVI; Homo sapiens
  inhibition at 10 µM: 72.9%
LOX IMVI
  Growth %: 27.06%
RXF 393; Homo sapiens
  inhibition at 10 µM: 50.6%
RXF 393
  Growth %: 49.36%
HCC-2998; Homo sapiens
  inhibition at 10 µM: 15.8%
HCC-2998
  Growth %: 84.2%
OVCAR-5; Homo sapiens
  inhibition at 10 µM: 21.3%
OVCAR-5
  Growth %: 78.72%
[1]
  IC50: 1.65 µM
DU-145; Homo sapiens
  inhibition at 10 µM: 74.8%
DU-145
  Growth %: 25.22%
